# Source: patent publication US8901086B2, “Compositions including triciribine and methods of use thereof” (University of South Florida, priority 2004, dated 2014)
# Tests used:
# [1] = biological target: PKCα (Homo sapiens, UniProt P17252); experiment: PKCα activity, kinase assay and immunoblot; assay type: cell-based
# Description: The immunoblots were detected with indicated antibodies. […] The kinase activity was quantified.
# [2] = system: H929 cells and U266 cells; experiment: Survival of multiple myeloma derived cells; assay type: cell-based
# [3] = system: MCF7 cells; experiment: Western blot of Akt pathway after mTOR inhibitor; assay type: cell-based; settings: 24 hour time course
# Description: The upper panels (A) show western blots of OV3 cell lysates following the treatment with 1 nM mTOR inhibitor rapamycin for the time indicated. Membranes were probed with antibodies specific to phosphorylated isoforms and to the total protein for comparison of Akt, p70S6K and FKHRL 1. The lower panels (B) illustrate western blots of MCF7 cell lysates following treatment with the mTOR inhibitor RAD001 for the time indicated. Membranes were probed with antibodies specific to phosphorylated isoforms and to the total protein for comparison of Akt and p70S6K.
# OV3 and MCF7 cells were treated with the mTOR inhibitors rapamycin and RAD001, respectively, over a 24 hour time course. Lysyates were resolved by SDS-PAGE and transferred to a membrane for western blotting. Membranes were probed with antibodies to phospho-Akt, total Akt, phospho-p70S6K, and total p70S6K. Membranes with lysates derived from OV3 cells were additionally probed with antibodies to phospho-FKHRL 1 and total FKHRL 1.
# [4] = system: p70S6K; assay type: cell-based, human; settings: 2 hours; trastuzumab 2 μg/ml, RAD001 0.4 nM
# Description: Total cell lysates were collected, separated by SDS-PAGE and immunoblotted as indicated. […] The experiments were repeated at least twice to insure that results were reproducible.
# (§1) SDS-PAGE and Immunoblot Analysis. Cells transfected with PTEN AS/NS oligonucleotides were treated as indicated.
# (§2) Phosphorylation of Akt on Thr308 and Ser473 was analyzed as an indicator of Akt activity and mTOR activity was assessed by the phosphorylation of p70S6K (70-kDa ribosomal protein S6 kinase), an mTOR target.
# [5] = system: Akt; assay type: cell-based, human; settings: 2 hours; trastuzumab 2 μg/ml, triciribine 2.5 μM, RAD001 0.4 nM
# Description: Total cell lysates were collected, separated by SDS-PAGE and immunoblotted as indicated.
# as §1, §2
smiles,measurement,setting,value
Cn1cc(C2=C(c3cn(CCCSC(=N)N)c4ccccc34)C(=O)NC2=O)c2ccccc21 [Ro 31-8220],kinase activity of PKCα,[1],inhibited
CC(C)C[C@H](NC(=O)[C@H](Cc1ccccc1)NC(=O)c1cnccn1)B(O)O [bortezomib],effect of API-2 on survival of myeloma cells,[2],synergistically enhances
"CO[C@H]1C[C@@H]2CC[C@@H](C)[C@@](O)(O2)C(=O)C(=O)N2CCCC[C@H]2C(=O)O[C@H]([C@H](C)C[C@@H]2CC[C@@H](OCCO)[C@H](OC)C2)CC(=O)[C@H](C)/C=C(\C)[C@@H](O)[C@@H](OC)C(=O)[C@H](C)C[C@H](C)/C=C/C=C/C=C/1C [RAD001, everolimus]",activation of Akt pathway,[3],rapid activation of Akt pathway
same,phosphorylation of p70S6K,[4],dramatically blocked
same,phosphorylation of Akt on Thr308 and Ser473,[5],feedback activation of Akt
